# Measured values as given in the supplement of paper PMC11061612.
# Experiments:
# MK-2206 = compound: NC1(c2ccc(-c3nc4ccn5c(=O)[nH]nc5c4cc3-c3ccccc3)cc2)CCC1 [MK-2206]; conditions: max 10 µM
# Method in brief: (§1)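 After 24 hours at 37°C and 5% CO2 in 1536-well plates holding 7.5 μl of DMEM/F12 or RPMI with 10% FBS, cancer cell lines were dosed for 72 hours, with final DMSO typically 0.2%. Viability came from CellTiter-Glo 2.0 luminescence, scaled between the means of blank wells and DMSO wells. A non-linear mixed effects model fitted a two-parameter logistic curve to each dose response to give the single-agent IC50.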
# 5-Fluorouracil = compound: O=c1[nH]cc(F)c(=O)[nH]1 [5-Fluorouracil]; conditions: max 20 µM
# Method in brief: as §1
# AZD1775 = compound: C=CCn1c(=O)c2cnc(Nc3ccc(N4CCN(C)CC4)cc3)nc2n1-c1cccc(C(C)(C)O)n1 [AZD1775]; conditions: max 3 µM
# Method in brief: as §1
# Doxorubicin = compound: COc1cccc2c1C(=O)c1c(O)c3c(c(O)c1C2=O)C[C@@](O)(C(=O)CO)C[C@@H]3O[C@H]1C[C@H](N)[C@H](O)[C@H](C)O1 [Doxorubicin]; conditions: max 1 µM
# Method in brief: as §1
# Selumetinib = compound: Cn1cnc2c(F)c(Nc3ccc(Br)cc3Cl)c(C(=O)NOCCO)cc21 [Selumetinib]; conditions: max 10 µM
# Method in brief: as §1
# Venetoclax = compound: CC1(C)CCC(CN2CCN(c3ccc(C(=O)NS(=O)(=O)c4ccc(NCC5CCOCC5)c([N+](=O)[O-])c4)c(Oc4cnc5[nH]ccc5c4)c3)CC2)=C(c2ccc(Cl)cc2)C1 [Venetoclax]; conditions: max 1 µM
# Method in brief: as §1
# Trametinib = compound: CC(=O)Nc1cccc(-n2c(=O)n(C3CC3)c(=O)c3c(Nc4ccc(I)cc4F)n(C)c(=O)c(C)c32)c1 [Trametinib]; conditions: max 1 µM
# Method in brief: as §1
# Lapatinib = compound: CS(=O)(=O)CCNCc1ccc(-c2ccc3ncnc(Nc4ccc(OCc5cccc(F)c5)c(Cl)c4)c3c2)o1 [Lapatinib]; conditions: max 10 µM
# Method in brief: as §1
# Alisertib = compound: COc1cc(Nc2ncc3c(n2)-c2ccc(Cl)cc2C(c2c(F)cccc2OC)=NC3)ccc1C(=O)O [Alisertib]; conditions: max 10 µM
# Method in brief: as §1
# AZD2811 = compound: CCN(CCO)CCCOc1ccc2c(Nc3cc(CC(=O)Nc4cccc(F)c4)[nH]n3)ncnc2c1 [AZD2811]; conditions: max 1 µM
# Method in brief: as §1
# Paclitaxel = compound: CC(=O)O[C@H]1C(=O)[C@@]2(C)[C@H]([C@H](OC(=O)c3ccccc3)[C@]3(O)C[C@H](OC(=O)[C@H](O)[C@@H](NC(=O)c4ccccc4)c4ccccc4)C(C)=C1C3(C)C)[C@]1(OC(C)=O)CO[C@@H]1C[C@@H]2O [Paclitaxel]; conditions: max 3 µM
# Method in brief: as §1
# AZD4320 = compound: CN(CC[C@H](CSC1=CC=CC=C1)NC2=C(C=C(C=C2)S(=O)(=O)NC(=O)C3=CC=C(C=C3)N4CCC(CC4)[C@H](C5=CC=CC=C5C6=CC=C(C=C6)Cl)O)S(=O)(=O)C(F)(F)F)CCO [AZD4320]; conditions: max 1 µM
# Method in brief: as §1
# Palbociclib = compound: CC(=O)c1c(C)c2cnc(Nc3ccc(N4CCNCC4)cn3)nc2n(C2CCCC2)c1=O [Palbociclib]; conditions: max 10 µM
# Method in brief: as §1
# Crizotinib = compound: C[C@@H](Oc1cc(-c2cnn(C3CCNCC3)c2)cnc1N)c1c(Cl)ccc(F)c1Cl [Crizotinib]; conditions: max 10 µM
# Method in brief: as §1
# AZD5991 = compound: Cc1c2c(nn1C)CSCc1cc(n(C)n1)CSc1cc(c3ccccc3c1)OCCCc1c(C(=O)O)n(C)c3c-2c(Cl)ccc13 [AZD5991]; conditions: max 1 µM
# Method in brief: as §1
# Gefitinib = compound: COc1cc2ncnc(Nc3ccc(F)c(Cl)c3)c2cc1OCCCN1CCOCC1 [Gefitinib]; conditions: max 10 µM
# Method in brief: as §1
# AZD8186 = compound: C[C@@H](Nc1cc(F)cc(F)c1)c1cc(C(=O)N(C)C)cc2c(=O)cc(N3CCOCC3)oc12 [AZD8186]; conditions: max 10 µM
# Method in brief: as §1
# AZD5153 = compound: COc1nnc2ccc(N3CCC(c4ccc(OCCN5CCN(C)C(=O)[C@H]5C)cc4)CC3)nn12 [AZD5153]; conditions: max 1 µM
# Method in brief: as §1
# Gemcitabine = compound: Nc1ccn([C@@H]2O[C@H](CO)[C@@H](O)C2(F)F)c(=O)n1 [Gemcitabine]; conditions: max 0.3 µM
# Method in brief: as §1
# AZD7648 = compound: Cc1cc2ncnn2cc1Nc1ncc2c(n1)n(C1CCOCC1)c(=O)n2C [AZD7648]; conditions: max 10 µM
# Method in brief: as §1
# Etoposide = compound: COc1cc([C@@H]2c3cc4c(cc3[C@@H](O[C@@H]3O[C@@H]5CO[C@@H](C)O[C@H]5[C@H](O)[C@H]3O)[C@H]3COC(=O)[C@H]23)OCO4)cc(OC)c1O [Etoposide]; conditions: max 10 µM
# Method in brief: as §1
# AZD5363 = compound: C1CN(CCC1(C(=O)N[C@@H](CCO)C2=CC=C(C=C2)Cl)N)C3=NC=NC4=C3C=CN4 [AZD5363]; conditions: max 10 µM
# Method in brief: as §1
# Olaparib = compound: O=C(c1cc(Cc2n[nH]c(=O)c3ccccc23)ccc1F)N1CCN(C(=O)C2CC2)CC1 [Olaparib]; conditions: max 10 µM
# Method in brief: as §1
# [1] = compound: O=C(Nc1ccc2[nH]nc(-c3ccncc3)c2c1)[C@@H]1CCN(CC(=O)N2CCN(c3ccc(-c4ncccn4)cc3)CC2)C1; conditions: max 5 µM
# Method in brief: as §1
# Prexasertib = compound: COc1cccc(OCCCN)c1-c1cc(Nc2cnc(C#N)cn2)n[nH]1 [Prexasertib]; conditions: max 1 µM
# Method in brief: as §1
# SRA737 = compound: N#Cc1cnc(Nc2cc(NC[C@H]3CNCCO3)c(C(F)(F)F)cn2)cn1 [SRA737]; conditions: max 10 µM
# Method in brief: as §1
# Carboplatin = compound: C1CC(C1)(C(=O)[O-])C(=O)[O-].N.N.[Pt+2] [Carboplatin]; conditions: max 10 µM
# Method in brief: as §1
# AZD1390 = compound: CC(C)n1c(=O)n(C)c2cnc3cc(F)c(-c4ccc(OCCCN5CCCCC5)nc4)cc3c21 [AZD1390]; conditions: max 0.3 µM
# Method in brief: as §1
# AZD0156 = compound: CN(C)CCCOc1ccc(-c2ccc3ncc4c(c3c2)n(C2CCOCC2)c(=O)n4C)cn1 [AZD0156]; conditions: max 3 µM
# Method in brief: as §1
# Dasatinib = compound: CC1=C(C(=CC=C1)Cl)NC(=O)C2=CN=C(S2)NC3=CC(=NC(=N3)C)N4CCN(CC4)CCO [Dasatinib]; conditions: max 2 µM
# Method in brief: as §1
# SN-38 = compound: CCc1c2c(nc3ccc(O)cc13)-c1cc3c(c(=O)n1C2)COC(=O)[C@]3(O)CC [SN-38]; conditions: max 0.3 µM
# Method in brief: as §1
# Taselisib = compound: Cc1nc(-c2cn3c(n2)-c2ccc(-c4cnn(C(C)(C)C(N)=O)c4)cc2OCC3)n(C(C)C)n1 [Taselisib]; conditions: max 10 µM
# Method in brief: as §1
# SG3199 = compound: CC1=CN2[C@@H](C1)C=NC3=CC(=C(C=C3C2=O)OC)OCCCCCOC4=C(C=C5C(=C4)N=C[C@@H]6CC(=CN6C5=O)C)OC [SG3199]; conditions: max 0.001 µM
# Method in brief: as §1
# Savolitinib = compound: C[C@@H](c1ccc2nccn2c1)n1nnc2ncc(-c3cnn(C)c3)nc21 [Savolitinib]; conditions: max 1 µM
# Method in brief: as §1
# AZD6738 = compound: C[C@@H]1COCCN1C2=NC(=NC(=C2)C3(CC3)[S@](=N)(=O)C)C4=C5C=CNC5=NC=C4 [AZD6738]; conditions: max 10 µM
# Method in brief: as §1
Cell Line,"IC50, cell viability 72 h (MK-2206) [µM]","IC50, cell viability 72 h (5-Fluorouracil) [µM]","IC50, cell viability 72 h (AZD1775) [µM]","IC50, cell viability 72 h (Doxorubicin) [µM]","IC50, cell viability 72 h (Selumetinib) [µM]","IC50, cell viability 72 h (Venetoclax) [µM]","IC50, cell viability 72 h (Trametinib) [µM]","IC50, cell viability 72 h (Lapatinib) [µM]","IC50, cell viability 72 h (Alisertib) [µM]","IC50, cell viability 72 h (AZD2811) [µM]","IC50, cell viability 72 h (Paclitaxel) [µM]","IC50, cell viability 72 h (AZD4320) [µM]","IC50, cell viability 72 h (Palbociclib) [µM]","IC50, cell viability 72 h (Crizotinib) [µM]","IC50, cell viability 72 h (AZD5991) [µM]","IC50, cell viability 72 h (Gefitinib) [µM]","IC50, cell viability 72 h (AZD8186) [µM]","IC50, cell viability 72 h (AZD5153) [µM]","IC50, cell viability 72 h (Gemcitabine) [µM]","IC50, cell viability 72 h (AZD7648) [µM]","IC50, cell viability 72 h (Etoposide) [µM]","IC50, cell viability 72 h (AZD5363) [µM]","IC50, cell viability 72 h (Olaparib) [µM]","IC50, cell viability 72 h [1] [µM]","IC50, cell viability 72 h (Prexasertib) [µM]","IC50, cell viability 72 h (SRA737) [µM]","IC50, cell viability 72 h (Carboplatin) [µM]","IC50, cell viability 72 h (AZD1390) [µM]","IC50, cell viability 72 h (AZD0156) [µM]","IC50, cell viability 72 h (Dasatinib) [µM]","IC50, cell viability 72 h (SN-38) [µM]","IC50, cell viability 72 h (Taselisib) [µM]","IC50, cell viability 72 h (SG3199) [µM]","IC50, cell viability 72 h (Savolitinib) [µM]","IC50, cell viability 72 h (AZD6738) [µM]"
SK-GT-4 (Esophageal Adenocarcinoma),> 10,> 20,> 3,> 1,6.05,> 1,0.0901,> 10,> 10,> 1,0.945,> 1,> 10,> 10,> 1,> 10,> 10,> 1,> 0.3,> 10,> 10,> 10,> 10,4.61,0.0707,> 10,> 10,> 0.3,> 3,1.5,> 0.3,0.911,> 0.001,> 1,> 10
KYSE-270 (Esophageal Squamous Cell Carcinoma),> 10,14.9,0.665,0.424,> 10,> 1,> 1,7.84,> 10,> 1,0.0394,> 1,> 10,> 10,> 1,8.19,> 10,> 1,0.0359,> 10,4.58,> 10,> 10,> 5,0.00806,1.4,> 10,> 0.3,> 3,0.506,0.0107,3.47,> 0.001,> 1,4.16
SJSA-1 (Osteosarcoma),> 10,> 20,> 3,> 1,> 10,> 1,> 1,> 10,> 10,> 1,0.0799,> 1,> 10,> 10,> 1,> 10,> 10,0.533,0.0821,> 10,> 10,> 10,> 10,> 5,0.156,> 10,> 10,> 0.3,> 3,> 2,0.0879,4.81,> 0.001,> 1,> 10
